Reference: ChEMBL document CHEMBL1909046, “DrugMatrix in vitro pharmacology data”

Assays:
[1] = DRUGMATRIX: Nicotinic Acetylcholine radioligand binding (ligand: [125I] Epibatidine); type: cell membranes, Membrane; settings: imr-32; Not Active = under 50% inhibition at 10 µM
[2] = DRUGMATRIX: ATPase, Na+/K+ enzyme inhibition (substrate: ATP); type: tissue-based, Sus scrofa, Heart; settings: Not Active = under 50% inhibition at 10 µM
Melanocortin receptor 3 = Melanocortin receptor 3 (Homo sapiens, UniProt P41968); type: cell membranes, Membrane; settings: hek293; further: in other assays of this panel Not Active means under 50% inhibition at 10 µM
Sequence of Melanocortin receptor 3 (P41968 whole entry): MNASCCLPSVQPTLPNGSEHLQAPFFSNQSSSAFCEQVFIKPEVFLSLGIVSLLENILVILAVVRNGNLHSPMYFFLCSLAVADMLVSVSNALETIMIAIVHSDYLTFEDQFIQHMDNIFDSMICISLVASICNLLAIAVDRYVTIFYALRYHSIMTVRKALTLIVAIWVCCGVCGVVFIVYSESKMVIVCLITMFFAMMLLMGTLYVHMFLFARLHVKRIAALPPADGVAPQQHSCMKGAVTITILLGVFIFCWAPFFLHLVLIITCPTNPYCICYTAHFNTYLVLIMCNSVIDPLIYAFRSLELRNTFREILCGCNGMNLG

Thromboxane-A synthase = molecular target: T1, Thromboxane-A synthase (Homo sapiens, UniProt P24557); test: biochemical; type: tissue-based, Platelet; settings: platelet;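 further: enzyme inhibition assay with PGH2 supplied as substrate; in other assays of this panel Not Active means under 50% inhibition at 10 µM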
T1 sequence (P24557 whole entry): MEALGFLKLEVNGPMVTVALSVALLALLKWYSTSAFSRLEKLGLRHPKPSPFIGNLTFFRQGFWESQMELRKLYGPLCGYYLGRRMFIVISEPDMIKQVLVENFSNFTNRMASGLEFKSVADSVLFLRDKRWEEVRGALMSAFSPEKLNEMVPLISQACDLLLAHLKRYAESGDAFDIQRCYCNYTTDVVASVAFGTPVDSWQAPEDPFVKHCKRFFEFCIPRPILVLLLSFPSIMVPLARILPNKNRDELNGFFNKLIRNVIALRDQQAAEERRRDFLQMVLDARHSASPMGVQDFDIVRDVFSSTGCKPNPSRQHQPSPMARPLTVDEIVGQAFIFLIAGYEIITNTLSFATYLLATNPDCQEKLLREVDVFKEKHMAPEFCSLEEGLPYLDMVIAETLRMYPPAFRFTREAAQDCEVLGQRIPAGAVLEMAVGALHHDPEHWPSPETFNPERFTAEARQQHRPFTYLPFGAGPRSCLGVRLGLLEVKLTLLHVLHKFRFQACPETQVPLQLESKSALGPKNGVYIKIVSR

[3] = molecular target: cGMP-specific 3',5'-cyclic phosphodiesterase (Homo sapiens, UniProt O76074); test: DRUGMATRIX: Phosphodiesterase PDE5 enzyme inhibition (substrate: [3H]cGMP + cGMP); type: tissue-based, Platelet; settings: platelet; Not Active = under 50% inhibition at 10 µM
[4] = molecular target: Protein phosphatase 3 catalytic subunit alpha (Homo sapiens, UniProt Q08209); parameters: species or system Escherichia coli;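 further: inhibition of calcineurin (PP2B) enzyme activity, measured with DiFMUP as the substrate; in other assays of this panel Not Active means under 50% inhibition at 10 µM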
Cytochrome P450 2A6 = molecular target: T2, Cytochrome P450 2A6 (Homo sapiens, UniProt P11509); settings: bti-tn-5b1-4; further: in other assays of this panel Not Active means under 50% inhibition at 10 µM
T2 sequence (P11509 whole entry): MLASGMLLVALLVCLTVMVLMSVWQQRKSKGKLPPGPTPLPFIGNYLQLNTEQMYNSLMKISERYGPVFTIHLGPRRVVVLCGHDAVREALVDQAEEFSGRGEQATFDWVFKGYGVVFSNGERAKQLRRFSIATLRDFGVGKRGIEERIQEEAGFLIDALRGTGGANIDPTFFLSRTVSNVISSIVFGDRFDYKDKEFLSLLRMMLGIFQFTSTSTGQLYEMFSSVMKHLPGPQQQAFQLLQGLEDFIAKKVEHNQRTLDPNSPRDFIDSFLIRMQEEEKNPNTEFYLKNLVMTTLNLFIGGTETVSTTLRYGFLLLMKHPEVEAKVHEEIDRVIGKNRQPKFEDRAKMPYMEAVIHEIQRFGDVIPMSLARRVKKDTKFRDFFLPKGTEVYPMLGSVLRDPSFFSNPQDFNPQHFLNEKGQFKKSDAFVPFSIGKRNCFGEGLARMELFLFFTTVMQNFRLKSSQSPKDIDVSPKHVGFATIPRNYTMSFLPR

Cytochrome P450 1A2 = molecular target: T3, Cytochrome P450 1A2 (Homo sapiens, UniProt P05177); settings: bti-tn-5b1-4; further: in other assays of this panel Not Active means under 50% inhibition at 10 µM
T3 sequence (P05177 whole entry): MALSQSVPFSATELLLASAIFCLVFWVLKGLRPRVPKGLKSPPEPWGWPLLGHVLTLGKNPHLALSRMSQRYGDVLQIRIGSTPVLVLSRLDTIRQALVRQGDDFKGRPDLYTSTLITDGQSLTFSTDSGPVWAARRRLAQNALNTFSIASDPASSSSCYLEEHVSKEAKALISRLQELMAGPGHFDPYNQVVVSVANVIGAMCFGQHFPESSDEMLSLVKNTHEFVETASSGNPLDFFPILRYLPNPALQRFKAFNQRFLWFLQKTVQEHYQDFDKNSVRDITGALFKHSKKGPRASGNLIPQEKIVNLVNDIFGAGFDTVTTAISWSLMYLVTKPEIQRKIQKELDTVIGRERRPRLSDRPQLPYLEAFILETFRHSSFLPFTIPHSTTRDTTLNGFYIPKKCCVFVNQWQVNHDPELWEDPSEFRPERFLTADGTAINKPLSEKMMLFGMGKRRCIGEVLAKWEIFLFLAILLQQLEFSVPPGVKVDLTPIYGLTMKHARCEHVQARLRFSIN

Substance-K receptor = molecular target: T4, Substance-K receptor (Homo sapiens, UniProt P21452); type: cell membranes, CHO, Membrane; settings: cho; further: in other assays of this panel Not Active means under 50% inhibition at 10 µM
T4 sequence (P21452 whole entry): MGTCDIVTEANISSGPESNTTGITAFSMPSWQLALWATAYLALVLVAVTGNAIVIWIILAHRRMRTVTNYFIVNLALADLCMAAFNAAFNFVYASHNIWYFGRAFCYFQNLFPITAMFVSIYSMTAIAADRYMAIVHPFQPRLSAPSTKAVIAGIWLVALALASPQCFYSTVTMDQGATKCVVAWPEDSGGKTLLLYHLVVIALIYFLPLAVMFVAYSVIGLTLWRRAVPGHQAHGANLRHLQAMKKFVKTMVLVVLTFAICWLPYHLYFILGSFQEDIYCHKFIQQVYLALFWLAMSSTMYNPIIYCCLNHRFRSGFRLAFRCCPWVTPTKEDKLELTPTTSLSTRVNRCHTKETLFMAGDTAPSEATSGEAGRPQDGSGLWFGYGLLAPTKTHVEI

[5] = molecular target: T5, C-X-C chemokine receptor type 1 (Homo sapiens, UniProt P25024); further: in other assays of this panel Not Active means under 50% inhibition at 10 µM
T5 sequence (P25024 whole entry): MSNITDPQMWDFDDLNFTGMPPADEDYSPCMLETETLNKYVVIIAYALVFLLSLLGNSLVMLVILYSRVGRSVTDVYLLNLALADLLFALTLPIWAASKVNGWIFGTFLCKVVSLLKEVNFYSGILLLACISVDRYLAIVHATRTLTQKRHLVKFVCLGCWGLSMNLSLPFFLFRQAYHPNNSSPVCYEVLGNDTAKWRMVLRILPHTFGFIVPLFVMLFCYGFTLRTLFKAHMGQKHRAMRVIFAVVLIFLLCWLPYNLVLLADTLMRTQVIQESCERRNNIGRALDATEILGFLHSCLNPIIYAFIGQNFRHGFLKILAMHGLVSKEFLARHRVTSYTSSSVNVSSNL

COCc1c(C(C)C)nc(C(C)C)c(/C=C/[C@@H](O)C[C@@H](O)CC(=O)O)c1-c1ccc(F)cc1 [CERIVASTATIN]
IC50 [1]: Not Active
Ki [1]: Not Active
IC50 [2]: Not Active
Ki [2]: Not Active
IC50 (Melanocortin receptor 3): Not Active
IC50 (Thromboxane-A synthase): Not Active
IC50 [3]: Not Active
IC50 [4]: Not Active
IC50 (Cytochrome P450 2A6): Not Active
Ki (Cytochrome P450 2A6): Not Active
IC50 (Cytochrome P450 1A2): Not Active
Ki (Cytochrome P450 1A2): Not Active
IC50 (Substance-K receptor): Not Active
IC50 [5]: Not Active

CC(=O)O[C@]1(C(C)=O)CC[C@H]2[C@@H]3C=C(Cl)C4=CC(=O)CC[C@]4(C)[C@H]3CC[C@@]21C [CHLORMADINONE ACETATE]
IC50 [1]: Not Active
Ki [1]: Not Active
IC50 ([2]; read-out: IC50): 4.57 µM
IC50 (Melanocortin receptor 3): Not Active
IC50 (Thromboxane-A synthase): Not Active
IC50 [3]: Not Active
IC50 [4]: Not Active
IC50 (Cytochrome P450 2A6): Not Active
Ki (Cytochrome P450 2A6): Not Active
IC50 (Cytochrome P450 1A2): Not Active
Ki (Cytochrome P450 1A2): Not Active
IC50 (Substance-K receptor): Not Active
IC50 [5]: Not Active

O=C1CCc2cc(OCCCCc3nnnn3C3CCCCC3)ccc2N1 [CILOSTAZOL]
IC50 [1]: Not Active
Ki [1]: Not Active
IC50 [2]: Not Active
Ki [2]: Not Active
IC50 (Melanocortin receptor 3): Not Active
IC50 (Thromboxane-A synthase): Not Active
IC50 [3]: Not Active
IC50 [4]: Not Active
IC50 (Cytochrome P450 2A6): Not Active
Ki (Cytochrome P450 2A6): Not Active
IC50 (Cytochrome P450 1A2): Not Active
Ki (Cytochrome P450 1A2): Not Active
IC50 (Substance-K receptor): Not Active
IC50 [5]: Not Active

CN(C)CCCC1(c2ccc(F)cc2)OCc2cc(C#N)ccc21 (centres undefined) [CITALOPRAM]
IC50 [1]: Not Active
Ki [1]: Not Active
IC50 [2]: Not Active
Ki [2]: Not Active
IC50 (Melanocortin receptor 3): Not Active
IC50 (Thromboxane-A synthase): Not Active
IC50 [3]: Not Active
IC50 [4]: Not Active
IC50 (Cytochrome P450 2A6): Not Active
Ki (Cytochrome P450 2A6): Not Active
IC50 (Cytochrome P450 1A2): Not Active
Ki (Cytochrome P450 1A2): Not Active
IC50 (Substance-K receptor): Not Active
IC50 [5]: Not Active

COC(=O)[C@H](c1ccccc1Cl)N1CCc2sccc2C1 [CLOPIDOGREL]
IC50 [1]: Not Active
Ki [1]: Not Active
IC50 [2]: Not Active
Ki [2]: Not Active
IC50 (Melanocortin receptor 3): Not Active
IC50 (Thromboxane-A synthase): Not Active
IC50 [3]: Not Active
IC50 [4]: Not Active
IC50 (Cytochrome P450 2A6): Not Active
Ki (Cytochrome P450 2A6): Not Active
IC50 (Cytochrome P450 1A2): Not Active
Ki (Cytochrome P450 1A2): Not Active
IC50 (Substance-K receptor): Not Active
IC50 [5]: Not Active

C[C@]12CCC(=O)C=C1CC[C@@H]1[C@@H]2C(=O)C[C@@]2(C)[C@H]1CC[C@]2(O)C(=O)CO [CORTISONE]
IC50 [1]: Not Active
Ki [1]: Not Active
IC50 [2]: Not Active
Ki [2]: Not Active
IC50 (Melanocortin receptor 3): Not Active
IC50 (Thromboxane-A synthase): Not Active
IC50 [3]: Not Active
IC50 [4]: Not Active
IC50 (Cytochrome P450 2A6): Not Active
Ki (Cytochrome P450 2A6): Not Active
IC50 (Cytochrome P450 1A2): Not Active
Ki (Cytochrome P450 1A2): Not Active
IC50 (Substance-K receptor): Not Active
IC50 [5]: Not Active

Cc1ccccc1N1CCN(CCc2nnc3n2CCCC3)CC1 [DAPIPRAZOLE]
IC50 [1]: Not Active
Ki [1]: Not Active
IC50 [2]: Not Active
Ki [2]: Not Active
IC50 (Melanocortin receptor 3): Not Active
IC50 (Thromboxane-A synthase): Not Active
IC50 [3]: Not Active
IC50 [4]: Not Active
IC50 (Cytochrome P450 2A6): Not Active
Ki (Cytochrome P450 2A6): Not Active
IC50 (Cytochrome P450 1A2): Not Active
Ki (Cytochrome P450 1A2): Not Active
IC50 (Substance-K receptor): Not Active
IC50 [5]: Not Active

CC1=Nc2ccc(Cl)cc2S(=O)(=O)N1 [DIAZOXIDE]
IC50 [1]: Not Active
Ki [1]: Not Active
IC50 [2]: Not Active
Ki [2]: Not Active
IC50 (Melanocortin receptor 3): Not Active
IC50 (Thromboxane-A synthase): Not Active
IC50 [3]: Not Active
IC50 [4]: Not Active
IC50 (Cytochrome P450 2A6): Not Active
Ki (Cytochrome P450 2A6): Not Active
IC50 (Cytochrome P450 1A2): Not Active
Ki (Cytochrome P450 1A2): Not Active
IC50 (Substance-K receptor): Not Active
IC50 [5]: Not Active

CC(=O)OCC(=O)[C@@]1(OC(C)=O)[C@@H](C)C[C@H]2[C@@H]3C[C@H](F)C4=CC(=O)C=C[C@]4(C)[C@@]3(F)[C@@H](O)C[C@@]21C [DIFLORASONE DIACETATE]
IC50 [1]: Not Active
Ki [1]: Not Active
IC50 [2]: Not Active
Ki [2]: Not Active
IC50 (Melanocortin receptor 3): Not Active
IC50 (Thromboxane-A synthase): Not Active
IC50 [3]: Not Active
IC50 [4]: Not Active
IC50 (Cytochrome P450 2A6): Not Active
Ki (Cytochrome P450 2A6): Not Active
IC50 (Cytochrome P450 1A2): Not Active
Ki (Cytochrome P450 1A2): Not Active
IC50 (Substance-K receptor): Not Active
IC50 [5]: Not Active

COc1ccc([C@@H]2Sc3ccccc3N(CCN(C)C)C(=O)[C@@H]2OC(C)=O)cc1 [DILTIAZEM]
IC50 [1]: Not Active
Ki [1]: Not Active
IC50 [2]: Not Active
Ki [2]: Not Active
IC50 (Melanocortin receptor 3): Not Active
IC50 (Thromboxane-A synthase): Not Active
IC50 [3]: Not Active
IC50 [4]: Not Active
IC50 (Cytochrome P450 2A6): Not Active
Ki (Cytochrome P450 2A6): Not Active
IC50 (Cytochrome P450 1A2): Not Active
Ki (Cytochrome P450 1A2): Not Active
IC50 (Substance-K receptor): Not Active
IC50 [5]: Not Active
